Source: patent US20230129721A1, “STABILIZER FOR RADIOPHARMACEUTICALS AND RADIOPHARMACEUTICAL COMPOSITION COMPRISING THE SAME” (THE ASAN FOUNDATION, priority 2020, published 2023)

What was measured:
[1] = pH (paper) of [^18F]PI-2620 radiopharmaceutical composition over time at 40° C.; format: physicochemical
[2] = Radiochemical purity of [^18F]PI-2620 radiopharmaceutical composition over time at 40° C. by HPLC; format: physicochemical
Procedure: Fluoride ([^18F]) and 2 mg of a precursor were dissolved in dimethyl sulfoxide, and the reaction mixture was fluorinated using an SN2 reaction at a temperature of 100° C. or higher. Then, a protecting group was hydrolyzed with sulfuric acid, and the mixture was neutralized with sodium hydroxide, purified using high-performance liquid chromatography (HPLC) (purification conditions: Luna C18 250×10 mm, phosphate buffer:acetonitrile=70:30 (v/v), 5.0 mL/min, UV=254 nm), and then formulated (formulation composition: 100 mg of sodium ascorbate, 2 nM phosphate buffer, and 10% ethanol) to obtain the [^18F]PI-2620 compound having a radiochemical purity of 100% (FIG. 1).
[^18F]PI-2620 was formulated with ethanol, ascorbic acid, and a phosphate buffer, and the radiochemical purity of the radiopharmaceutical composition was then measured at the elapsed times of 0 hour, 2 hours, 4 hours, and 6 hours at a temperature of 40° C. using HPLC (analysis conditions: Luna C18 250×4.6 mm, phosphate buffer:acetonitrile=60:40 (v/v), 1.0 mL/min, UV=254 nm).
[^18F]PI-2620 was obtained as a compound having a radiochemical purity of 100% in the same manner as in Example 1. To further confirm the stability of the compound, 2 equivalents of sodium ascorbate used in Example 1 was added during a formulation process (formulation composition: 200 mg of sodium ascorbate, a 2 nM phosphate buffer, and 10% ethanol), and the radiochemical purity of the radiopharmaceutical composition was then measured in the same manner as in Example 1 at the elapsed times of 0 hour, 2 hours, 4 hours, and 6 hours at a temperature of 40° C. using high-performance liquid chromatography (HPLC)
[^18F]PI-2620 was obtained as a compound having a radiochemical purity of 100% in the same manner as in Example 1. To check the causes of a decrease in radiochemical purity, the radiochemical purity of the radiopharmaceutical composition was then measured in the same manner as in Example 1 at the elapsed times of 0 hour, 2 hours, 4 hours, and 6 hours at a temperature of 40° C. under three formulation conditions (Condition 1: ethanol and water for injection (formulation composition: 10% ethanol); Condition 2: ethanol and a phosphate buffer (formulation composition: a 2 nM phosphate buffer and 10% ethanol); Condition 3: ethanol and a 2×phosphate buffer (formulation composition: a 4 nM phosphate buffer and 10% ethanol)) using high-performance liquid chromatography (HPLC).
[^18F]PI-2620 was obtained as a compound having a radiochemical purity of 98% or more in the same manner as in Example 1. As a novel stabilizing agent, vitamin B1 (VB1), vitamin B6 (VB6), vitamin B8 (VB8), vitamin B10 (VB10), or vitamin B12 (VB12) (formulation composition: 10% ethanol and a 50 mg/mL vitamin concentration) was added to ethanol and water for injection, and the radiochemical purity of the radiopharmaceutical composition was measured in the same manner as in Example 1 at the elapsed times of 0 hour, 2 hours, 4 hours, and 6 hours at a temperature of 40° C. using high-performance liquid chromatography (HPLC). A preparation including no vitamin B was used as the control.
[^18F]PI-2620 was obtained as a compound having a radiochemical purity of 98% or more in the same manner as in Example 1, and formulated with ethanol and a phosphate buffer (formulation composition: a 2 nM phosphate buffer and 10% ethanol). As a novel stabilizing agent, vitamin B1 (VB1), vitamin B6 (VB6), vitamin B8 (VB8), or vitamin B10 (VB10) was added at a concentration of 50 mg/mL, and the radiochemical purity of the radiopharmaceutical composition was measured in the same manner as in Example 1 at the elapsed times of 0 hour, 2 hours, 4 hours, and 6 hours at a temperature of 40° C. using high-performance liquid chromatography (HPLC). A preparation in which sodium ascorbate was added to the same concentrations of ethanol and phosphate buffer was used as the control. […]

[3] = 10% ethanol, water for injection, 50 mg/mL vitamin, 0 hr
[4] = 10% ethanol, water for injection, 50 mg/mL vitamin, 2 hr
[5] = 10% ethanol, water for injection, 50 mg/mL vitamin, 4 hr
[6] = 10% ethanol, water for injection, 50 mg/mL vitamin, 6 hr
[7] = [^18F]PI-2620, ethanol and water for injection (10% ethanol), 50 mg/mL vitamin, no phosphate buffer, 0 hr
[8] = [^18F]PI-2620, ethanol and water for injection (10% ethanol), 50 mg/mL vitamin, no phosphate buffer, 2 hr
[9] = [^18F]PI-2620, ethanol and water for injection (10% ethanol), 50 mg/mL vitamin, no phosphate buffer, 4 hr
[10] = [^18F]PI-2620, ethanol and water for injection (10% ethanol), 50 mg/mL vitamin, no phosphate buffer, 6 hr
[11] = 2 nM phosphate buffer and 10% ethanol, vitamin 50 mg/mL (control: sodium ascorbate), 0 hr
[12] = 2 nM phosphate buffer and 10% ethanol, vitamin 50 mg/mL (control: sodium ascorbate), 2 hr
[13] = 2 nM phosphate buffer and 10% ethanol, vitamin 50 mg/mL (control: sodium ascorbate), 4 hr
[14] = 2 nM phosphate buffer and 10% ethanol, vitamin 50 mg/mL (control: sodium ascorbate), 6 hr
[15] = [^18F]PI-2620, 2 nM phosphate buffer and 10% ethanol, vitamin 50 mg/mL (control: sodium ascorbate), 0 hr
[16] = [^18F]PI-2620, 2 nM phosphate buffer and 10% ethanol, vitamin 50 mg/mL (control: sodium ascorbate), 2 hr
[17] = [^18F]PI-2620, 2 nM phosphate buffer and 10% ethanol, vitamin 50 mg/mL (control: sodium ascorbate), 4 hr
[18] = [^18F]PI-2620, 2 nM phosphate buffer and 10% ethanol, vitamin 50 mg/mL (control: sodium ascorbate), 6 hr

Row | SMILES | PH (paper) [1, 3] | PH (paper) [1, 4] | PH (paper) [1, 5] | PH (paper) [1, 6] | Purity (radiochemical purity) [2, 7] [%] | Purity (radiochemical purity) [2, 8] [%] | Purity (radiochemical purity) [2, 9] [%] | Purity (radiochemical purity) [2, 10] [%] | PH (paper) [1, 11] | PH (paper) [1, 12] | PH (paper) [1, 13] | PH (paper) [1, 14] | Purity (radiochemical purity) [2, 15] [%] | Purity (radiochemical purity) [2, 16] [%] | Purity (radiochemical purity) [2, 17] [%] | Purity (radiochemical purity) [2, 18] [%] | further results
1 | C/C1=C2/[N-][C@H]([C@H](CC(N)=O)[C@@]2(C)CCC(=O)NC[C@H](C)OP(=O)([O-])O[C@H]2[C@@H](O)[C@@H](n3cnc4cc(C)c(C)cc43)O[C@@H]2CO)[C@]2(C)N=C(/C(C)=C3N=C(/C=C4N=C1[C@@H](CCC(N)=O)C\4(C)C)[C@@H](CCC(N)=O)[C@]\3(C)CC(N)=O)[C@@H](CCC(N)=O)[C@]2(C)CC(N)=O.[Co+2] (stereo in doubt) [VB12, cobalamin] | 6 | 7.5 | 6.5 | 6.5 | 98.33 | 98.99 | 98.7 | 98.29 |  |  |  |  |  |  |  |  | 
2 | O=C1O[C@H]([C@@H](O)CO)C([O-])=C1O.[Na+] [Na ascorbate, sodium ascorbate] |  |  |  |  |  |  |  |  | 6 | 6 | 6 | 6 | 99.05 | 95.53 | 93.77 | 90.04 | PH (paper) ([1]; 100 mg sodium ascorbate, 2 nM phosphate buffer, 10% ethanol, 0 hr): 6; PH (paper) ([1]; 100 mg sodium ascorbate, 2 nM phosphate buffer, 10% ethanol, 2 hr): 6; PH (paper) ([1]; 100 mg sodium ascorbate, 2 nM phosphate buffer, 10% ethanol, 4 hr): 6; PH (paper) ([1]; 100 mg sodium ascorbate, 2 nM phosphate buffer, 10% ethanol, 6 hr): 6; PH (paper) ([1]; 200 mg sodium ascorbate, 2 nM phosphate buffer, 10% ethanol, 0 hr): 6; PH (paper) ([1]; 200 mg sodium ascorbate, 2 nM phosphate buffer, 10% ethanol, 2 hr): 6; PH (paper) ([1]; 200 mg sodium ascorbate, 2 nM phosphate buffer, 10% ethanol, 4 hr): 6; PH (paper) ([1]; 200 mg sodium ascorbate, 2 nM phosphate buffer, 10% ethanol, 6 hr): 6; Purity (radiochemical purity) ([2]; [^18F]PI-2620, 100 mg sodium ascorbate, 2 nM phosphate buffer, 10% ethanol, 0 hr): 99.05%; Purity (radiochemical purity) ([2]; [^18F]PI-2620, 100 mg sodium ascorbate, 2 nM phosphate buffer, 10% ethanol, 2 hr): 95.53%; Purity (radiochemical purity) ([2]; [^18F]PI-2620, 100 mg sodium ascorbate, 2 nM phosphate buffer, 10% ethanol, 4 hr): 93.77%; Purity (radiochemical purity) ([2]; [^18F]PI-2620, 100 mg sodium ascorbate, 2 nM phosphate buffer, 10% ethanol, 6 hr): 90.04%; Purity (radiochemical purity) ([2]; [^18F]PI-2620, 200 mg sodium ascorbate, 2 nM phosphate buffer, 10% ethanol, 0 hr): 99.47%; Purity (radiochemical purity) ([2]; [^18F]PI-2620, 200 mg sodium ascorbate, 2 nM phosphate buffer, 10% ethanol, 2 hr): 96.95%; Purity (radiochemical purity) ([2]; [^18F]PI-2620, 200 mg sodium ascorbate, 2 nM phosphate buffer, 10% ethanol, 4 hr): 95.25%; Purity (radiochemical purity) ([2]; [^18F]PI-2620, 200 mg sodium ascorbate, 2 nM phosphate buffer, 10% ethanol, 6 hr): 93.00%
3 | Cc1ncc(C[n+]2csc(CCO)c2C)c(N)n1 [VB1, thiamine] | 8 | 7 | 7 | 7 | 98.92 | 98.97 | 99.1 | 98.94 | 5 | 5.5 | 5.5 | 5.5 | 98.79 | 98.46 | 98.97 | 98.94 | PH (paper) ([1]; 2 nM phosphate buffer and 10% ethanol, vitamin 0.78 mg/mL, 0 hr): 6; PH (paper) ([1]; 2 nM phosphate buffer and 10% ethanol, vitamin 0.78 mg/mL, 2 hr): 6; PH (paper) ([1]; 2 nM phosphate buffer and 10% ethanol, vitamin 0.78 mg/mL, 4 hr): 6; PH (paper) ([1]; 2 nM phosphate buffer and 10% ethanol, vitamin 0.78 mg/mL, 6 hr): 6; Purity (radiochemical purity) ([2]; [^18F]PI-2620, 2 nM phosphate buffer and 10% ethanol, vitamin 0.78 mg/mL, 0 hr): 99.66%; Purity (radiochemical purity) ([2]; [^18F]PI-2620, 2 nM phosphate buffer and 10% ethanol, vitamin 0.78 mg/mL, 2 hr): 99.21%; Purity (radiochemical purity) ([2]; [^18F]PI-2620, 2 nM phosphate buffer and 10% ethanol, vitamin 0.78 mg/mL, 4 hr): 97.63%; Purity (radiochemical purity) ([2]; [^18F]PI-2620, 2 nM phosphate buffer and 10% ethanol, vitamin 0.78 mg/mL, 6 hr): 97.12%
4 | Nc1ncnc2c1ncn2[C@@H]1O[C@H](COP(=O)(O)O)[C@@H](O)[C@H]1O [VB8, adenosine phosphate] | 6 | 6 | 6 | 6 | 98.92 | 99.14 | 98.8 | 98.2 | 6 | 6 | 6 | 6 | 98.06 | 95.43 | 92.46 | 87.76 | 
5 | Nc1ccc(C(=O)O)cc1 [VB10, 4-aminobenzoic acid] | 7 | 6 | 7 | 7 | 99.15 | 98.71 | 98.83 | 98.73 | 6 | 6 | 6 | 6 | 98.01 | 94.44 | 91.25 | 86.09 | 
6 | [18F]c1cc(-c2ccc3c(n2)[nH]c2ccncc23)ccn1 [[^18F]PI-2620] |  |  |  |  |  |  |  |  |  |  |  |  |  |  |  |  | Purity (radiochemical purity) ([2]; [^18F]PI-2620 under three formulation conditions (ethanol with or without phosphate buffer), 6 hr): not decomposed at a high temperature
